ChEMBL document CHEMBL1201861, “Genomics of Drug Sensitity in Cancer screening data, Wellcome Trust Sanger Institute”
pIC50: −log10 of the molar value.

Assays:
[1] = system: COR-L279; test: SANGER: Inhibition of human COR-L279 cell growth in a cell viability assay.; type: functional, cell-based
[2] = system: Capan-2; test: cells; type: functional, cell-based; settings: Homo sapiens;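 also: Capan-2 cell growth inhibition, read out with a viability assay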
Description: SANGER: Inhibition of human Capan-2 cell growth in a cell viability assay.

[3] = system: ChaGo-K-1; test: cells; type: functional, cell-based; settings: Homo sapiens;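 also: growth inhibition of ChaGo-K-1 cells, read out with a cell viability assay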
Description: SANGER: Inhibition of human ChaGo-K-1 cell growth in a cell viability assay.

[4] = system: Daudi; test: cells; type: functional, cell-based; settings: Homo sapiens;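 also: growth inhibition of Daudi cells, read out by a viability assay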
Description: SANGER: Inhibition of human Daudi cell growth in a cell viability assay.

[5] = system: DoTc2-4510; test: cells; type: functional, cell-based; settings: Homo sapiens
[6] = system: FaDu; test: cells; type: functional, cell-based; settings: Homo sapiens;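 also: cell viability readout of growth inhibition in FaDu cells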
Description: SANGER: Inhibition of human FADU cell growth in a cell viability assay.

[7] = system: G-361; test: cells; type: functional, cell-based; settings: Homo sapiens
[8] = system: GAMG; test: cells; type: functional, cell-based; settings: Homo sapiens;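 also: cell growth inhibition measured by a viability assay in the GAMG human cell line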
Description: SANGER: Inhibition of human GAMG cell growth in a cell viability assay.

[9] = system: H4; test: cells; type: functional, cell-based; settings: Homo sapiens
Description: SANGER: Inhibition of human H4 cell growth in a cell viability assay.

[10] = system: HCC1806; test: cells; type: functional, cell-based; settings: Homo sapiens;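 also: growth inhibition of the cancer cell line, determined with a cell viability assay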
Description: SANGER: Inhibition of human HCC1806 cell growth in a cell viability assay.

[11] = system: HCC38; test: cells; type: functional, cell-based; settings: Homo sapiens;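 also: cell viability assay on the human HCC38 cell line, with IC50 marking the concentration that inhibits cell growth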
Description: SANGER: Inhibition of human HCC38 cell growth in a cell viability assay.

[12] = system: HSC-2; test: cells; type: functional, cell-based; settings: Homo sapiens;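 also: growth inhibition of human HSC-2 cells, read out by a cell viability assay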
Description: SANGER: Inhibition of human HSC-2 cell growth in a cell viability assay.

[13] = system: HT1197; test: cells; type: functional, cell-based, HT-1197; settings: Homo sapiens
Description: SANGER: Inhibition of human HT-1197 cell growth in a cell viability assay.

[14] = system: HT-29; test: cells; type: functional, cell-based; settings: Homo sapiens;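 also: growth inhibition of human HT-29 cells, read out by a cell viability assay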
Description: SANGER: Inhibition of human HT-29 cell growth in a cell viability assay.

[15] = system: Huh-7; test: cells; type: functional, cell-based; settings: Homo sapiens;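 also: HuH-7 cell growth inhibition, read out with a cell viability assay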
Description: SANGER: Inhibition of human HuH-7 cell growth in a cell viability assay.

[16] = system: IST-SL2; test: cells; type: functional, cell-based; settings: Homo sapiens;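 also: growth inhibition of human IST-SL2 cells, read out by a cell viability assay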
Description: SANGER: Inhibition of human IST-SL2 cell growth in a cell viability assay.

[17] = system: KYSE-180; test: cells; type: functional, cell-based; settings: Homo sapiens;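 also: growth inhibition of KYSE-180 cells, read out with a cell viability assay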
Description: SANGER: Inhibition of human KYSE-180 cell growth in a cell viability assay.

[18] = system: LC-1F; test: cells; type: functional, cell-based; settings: Homo sapiens;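 also: growth inhibition of human LC-1F cells, read out with a cell viability assay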
Description: SANGER: Inhibition of human LC-1F cell growth in a cell viability assay.

[19] = system: LCLC-103H cell line; test: cells; type: functional, cell-based; settings: Homo sapiens
Description: SANGER: Inhibition of human LCLC-103H cell growth in a cell viability assay.

[20] = system: LoVo; test: cells; type: functional, cell-based; settings: Homo sapiens;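 also: growth inhibition of human LoVo cells, read out with a cell viability assay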
Description: SANGER: Inhibition of human LoVo cell growth in a cell viability assay.

[21] = system: M14; test: cells; type: functional, cell-based; settings: Homo sapiens;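 also: growth inhibition of M14 cells, read out with a cell viability assay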
Description: SANGER: Inhibition of human M14 cell growth in a cell viability assay.

[22] = system: MDA-MB-175-VII; test: cells; type: functional, cell-based; settings: Homo sapiens
[23] = system: MEL-JUSO; test: cells; type: functional, cell-based; settings: Homo sapiens;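 also: growth inhibition of human MEL-JUSO cells, read out with a cell viability assay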
Description: SANGER: Inhibition of human MEL-JUSO cell growth in a cell viability assay.

[24] = system: MKN-28; test: cells; type: functional, cell-based; settings: Homo sapiens;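 also: cell viability assay read-out, IC50 reflects suppression of growth of human MKN-28 cells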
Description: SANGER: Inhibition of human MKN28 cell growth in a cell viability assay.

[25] = system: MKN-7; test: cells; type: functional, cell-based; settings: Homo sapiens;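 also: growth inhibition of MKN-7 cells, read out with a cell viability assay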
Description: SANGER: Inhibition of human MKN7 cell growth in a cell viability assay.

[26] = system: NB1; test: cells; type: functional, cell-based; settings: Homo sapiens;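 also: reduction of NB1 cell proliferation, read out with a viability assay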
Description: SANGER: Inhibition of human NB1 cell growth in a cell viability assay.

[27] = system: NCI-H1417; test: cells; type: functional, cell-based; settings: Homo sapiens;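 also: human NCI-H1417 cells, growth inhibition determined with a cell viability readout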
Description: SANGER: Inhibition of human NCI-H1417 cell growth in a cell viability assay.

[28] = system: NCI-H1755; test: cells; type: functional, cell-based; settings: Homo sapiens;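 also: cell viability readout used to measure growth inhibition of NCI-H1755 cells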
Description: SANGER: Inhibition of human NCI-H1755 cell growth in a cell viability assay.

[29] = system: NCI-H1793; test: cells; type: functional, cell-based; settings: Homo sapiens;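 also: cell growth inhibition, read out by a cell viability assay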
Description: SANGER: Inhibition of human NCI-H1793 cell growth in a cell viability assay.

[30] = system: NCI-H2141; test: cells; type: functional, cell-based; settings: Homo sapiens;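 also: growth inhibition of human NCI-H2141 cells, read out with a cell viability assay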
Description: SANGER: Inhibition of human NCI-H2141 cell growth in a cell viability assay.

[31] = system: NCI-H322M; test: cells; type: functional, cell-based; settings: Homo sapiens;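 also: cell viability assay measuring inhibition of growth of human NCI-H322M cells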
Description: SANGER: Inhibition of human NCI-H322M cell growth in a cell viability assay.

[32] = system: NCI-H441; test: cells; type: functional, cell-based; settings: Homo sapiens;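 also: growth inhibition of NCI-H441 cells, read out with a cell viability assay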
Description: SANGER: Inhibition of human NCI-H441 cell growth in a cell viability assay.

[33] = system: NUGC-3; test: cells; type: functional, cell-based; settings: Homo sapiens;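 also: growth inhibition of human NUGC-3 cells, read out with a cell viability assay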
Description: SANGER: Inhibition of human NUGC-3 cell growth in a cell viability assay.

[34] = system: OPM-2; test: cells; type: functional, cell-based; settings: Homo sapiens;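 also: growth of OPM-2 cells measured with a viability assay, IC50 for suppression of proliferation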
Description: SANGER: Inhibition of human OPM-2 cell growth in a cell viability assay.

[35] = system: Panc1005; test: cells; type: functional, cell-based; settings: Homo sapiens;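 also: growth inhibition of human PANC-10-05 cells, measured by a cell viability assay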
Description: SANGER: Inhibition of human PANC-10-05 cell growth in a cell viability assay.

[36] = system: PC-3; test: cells; type: functional, cell-based; settings: Homo sapiens;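 also: cell viability assay measuring growth inhibition of PC-3 cells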
Description: SANGER: Inhibition of human PC-3 cell growth in a cell viability assay.

[37] = system: PFSK-1; test: cells; type: functional, cell-based; settings: Homo sapiens;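 also: cell viability assay measuring how strongly compounds suppress growth of human PFSK-1 cells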
Description: SANGER: Inhibition of human PFSK-1 cell growth in a cell viability assay.

[38] = system: RT-112; test: cells; type: functional, cell-based; settings: Homo sapiens
Description: SANGER: Inhibition of human RT-112 cell growth in a cell viability assay.

[39] = system: Raji; test: cells; type: functional, cell-based; settings: Homo sapiens;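 also: cell viability assay measuring inhibition of Raji cell growth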
Description: SANGER: Inhibition of human Raji cell growth in a cell viability assay.

[40] = system: SAS; test: cells; type: functional, cell-based; settings: Homo sapiens;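 also: growth inhibition of SAS cells, read out with a cell viability assay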
Description: SANGER: Inhibition of human SAS cell growth in a cell viability assay.

[41] = system: SCC-9; test: cells; type: functional, cell-based; settings: Homo sapiens;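 also: Read-out is a cell viability assay, with values giving inhibition of cell growth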
Description: SANGER: Inhibition of human SCC-9 cell growth in a cell viability assay.

[42] = system: SK-LU-1; test: cells; type: functional, cell-based; settings: Homo sapiens;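 also: cell viability assay measuring growth inhibition of human SK-LU-1 cells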
Description: SANGER: Inhibition of human SK-LU-1 cell growth in a cell viability assay.

[43] = system: SK-MEL3; test: cells; type: functional, cell-based, SK-MEL-3; settings: Homo sapiens;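 also: growth inhibition of human SK-MEL-3 cells, read out with a cell viability assay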
Description: SANGER: Inhibition of human SK-MEL-3 cell growth in a cell viability assay.

[44] = system: SR; test: cells; type: functional, cell-based; settings: Homo sapiens
Description: SANGER: Inhibition of human SR cell growth in a cell viability assay.

[45] = system: SW1783; test: cells; type: functional, cell-based; settings: Homo sapiens
Description: SANGER: Inhibition of human SW1783 cell growth in a cell viability assay.

[46] = system: SW837; test: cells; type: functional, cell-based; settings: Homo sapiens;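 also: growth inhibition of SW837 cells, determined with a cell viability assay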
Description: SANGER: Inhibition of human SW837 cell growth in a cell viability assay.

[47] = system: T47D; test: cells; type: functional, cell-based; settings: Homo sapiens;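 also: growth inhibition of human T47D cells, measured with a cell viability assay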
Description: SANGER: Inhibition of human T47D cell growth in a cell viability assay.

[48] = system: CWR22R; test: cells; type: functional, cell-based; settings: Homo sapiens, 22Rv1;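 also: growth inhibition of 22Rv1 cells, read out with a cell viability assay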
Description: SANGER: Inhibition of human 22RV1 cell growth in a cell viability assay.

[49] = system: 5637; test: cells; type: functional, cell-based; settings: Homo sapiens
Description: SANGER: Inhibition of human 5637 cell growth in a cell viability assay.

[50] = system: A-431; test: cells; type: functional, cell-based; settings: Homo sapiens;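 also: growth inhibition of A-431 cells, determined with a cell viability read-out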
Description: SANGER: Inhibition of human A431 cell growth in a cell viability assay.

[51] = system: A673; test: cells; type: functional, cell-based; settings: Homo sapiens;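 also: growth inhibition of human A673 cells, read out through a cell viability assay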
Description: SANGER: Inhibition of human A673 cell growth in a cell viability assay.

[52] = system: ACHN; test: cells; type: functional, cell-based; settings: Homo sapiens;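 also: cell viability read-out used to gauge how strongly growth of human ACHN cells is suppressed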
Description: SANGER: Inhibition of human ACHN cell growth in a cell viability assay.

[53] = system: ASPC1; test: cells; type: functional, cell-based; settings: Homo sapiens;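 also: growth inhibition of AsPC-1 cells, read out with a cell viability assay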
Description: SANGER: Inhibition of human AsPC-1 cell growth in a cell viability assay.

[54] = system: BCPAP; test: cells; type: functional, cell-based; settings: Homo sapiens;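 also: growth inhibition of BCPAP cells, read out in a cell viability assay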
Description: SANGER: Inhibition of human BCPAP cell growth in a cell viability assay.

[55] = system: BHT-101; test: cells; type: functional, cell-based; settings: Homo sapiens
Description: SANGER: Inhibition of human BHT-101 cell growth in a cell viability assay.

[56] = system: C-33-A; test: cells; type: functional, cell-based; settings: Homo sapiens;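 also: cell viability assay measuring growth inhibition of C-33-A cells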
Description: SANGER: Inhibition of human C-33-A cell growth in a cell viability assay.

[57] = system: C3A; test: cells; type: functional, cell-based; settings: Homo sapiens;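 also: growth inhibition of C3A human cells, quantified with a cell viability readout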
Description: SANGER: Inhibition of human C3A cell growth in a cell viability assay.

[58] = system: CAL-148; test: cells; type: functional, cell-based; settings: Homo sapiens
Description: SANGER: Inhibition of human CAL-148 cell growth in a cell viability assay.

[59] = system: CAL-33; test: cells; type: functional, cell-based; settings: Homo sapiens;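 also: growth inhibition of CAL-33 cells, read out with a cell viability assay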
Description: SANGER: Inhibition of human CAL-33 cell growth in a cell viability assay.

[60] = system: TGW; test: cells; type: functional, cell-based; settings: Homo sapiens;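 also: growth inhibition of human TGW cells, read out with a cell viability assay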
Description: SANGER: Inhibition of human TGW cell growth in a cell viability assay.

[61] = system: THP-1; test: cells; type: functional, cell-based; settings: Homo sapiens;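 also: growth inhibition of THP-1 cells, read out via a cell viability assay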
Description: SANGER: Inhibition of human THP-1 cell growth in a cell viability assay.

[62] = system: TUR; test: cells; type: functional, cell-based; settings: Homo sapiens;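 also: growth inhibition of human TUR cells, read out with a cell viability assay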
Description: SANGER: Inhibition of human TUR cell growth in a cell viability assay.

[63] = system: YKG-1; test: cells; type: functional, cell-based; settings: Homo sapiens
Description: SANGER: Inhibition of human YKG-1 cell growth in a cell viability assay.

[64] = system: HuO9; test: cells; type: functional, cell-based; settings: Homo sapiens
Description: SANGER: Inhibition of human HuO9 cell growth in a cell viability assay.

[65] = system: NB7; test: cells; type: functional, cell-based; settings: Homo sapiens
Description: SANGER: Inhibition of human NB7 cell growth in a cell viability assay.

## N#C/C(=C1/Nc2ccccc2S1)c1ccnc(NCCc2cccnc2)n1
[1]
  pIC50: < 5.10
[2]
  pIC50: 5.18
[3]
  pIC50: 5.34
[4]
  pIC50: 5.18
[5]
  pIC50: 5.68
[6]
  pIC50: < 5.10
[7]
  pIC50: < 5.10
[8]
  pIC50: < 5.10
[9]
  pIC50: < 5.10
[10]
  pIC50: 5.81
[11]
  pIC50: 5.28
[12]
  pIC50: < 5.10
[13]
  pIC50: < 5.10
[14]
  pIC50: 5.37
[15]
  pIC50: < 5.10
[16]
  pIC50: < 5.10
[17]
  pIC50: < 5.10
[18]
  pIC50: < 5.10
[19]
  pIC50: < 5.10
[20]
  pIC50: 5.57
[21]
  pIC50: < 5.10
[22]
  pIC50: < 5.10
[23]
  pIC50: 5.44
[24]
  pIC50: < 5.10
[25]
  pIC50: < 5.10
[26]
  pIC50: < 5.10
[27]
  pIC50: < 5.10
[28]
  pIC50: < 5.10
[29]
  pIC50: < 5.10
[30]
  pIC50: < 5.10
[31]
  pIC50: < 5.10
[32]
  pIC50: 5.26
[33]
  pIC50: < 5.10
[34]
  pIC50: < 5.10
[35]
  pIC50: < 5.10
[36]
  pIC50: < 5.10
[37]
  pIC50: < 5.10
[38]
  pIC50: < 5.10
[39]
  pIC50: < 5.10
[40]
  pIC50: < 5.10
[41]
  pIC50: < 5.10
[42]
  pIC50: 5.33
[43]
  pIC50: < 5.10
[44]
  pIC50: 5.73
[45]
  pIC50: 5.21
[46]
  pIC50: 5.28
[47]
  pIC50: < 5.10
[48]
  pIC50: < 5.10
[49]
  pIC50: < 5.10
[50]
  pIC50: < 5.10
[51]
  pIC50: < 5.10
[52]
  pIC50: 5.63
[53]
  pIC50: < 5.10
[54]
  pIC50: 5.35
[55]
  pIC50: < 5.10
[56]
  pIC50: 5.57
[57]
  pIC50: 5.55
[58]
  pIC50: < 5.10
[59]
  pIC50: < 5.10
[60]
  pIC50: < 5.10
[61]
  pIC50: 5.27
[62]
  pIC50: < 5.10
[63]
  pIC50: 5.42

## Cn1c(=O)n(-c2ccc(C(C)(C)C#N)cc2)c2c3cc(-c4cnc5ccccc5c4)ccc3ncc21 [DACTOLISIB]
[2]
  pIC50: < 5.70
[3]
  pIC50: 6.48
[5]
  pIC50: 5.97
[6]
  pIC50: 6.57
[8]
  pIC50: 7.71
[9]
  pIC50: 7.90
[10]
  pIC50: 6.78
[11]
  pIC50: 6.57
[12]
  pIC50: 7.02
[13]
  pIC50: 6.62
[14]
  pIC50: < 5.70
[15]
  pIC50: 7.74
[64]
  pIC50: 7.57
[17]
  pIC50: 7.34
[19]
  pIC50: 6.54
[20]
  pIC50: 7.32
[21]
  pIC50: 7.22
[22]
  pIC50: 7.40
[24]
  pIC50: 5.96
[25]
  pIC50: 6.91
[65]
  pIC50: 6.72
[28]
  pIC50: 6.86
[29]
  pIC50: 7.89
[32]
  pIC50: 6.05
[33]
  pIC50: 7.79
[35]
  pIC50: 6.61
[36]
  pIC50: 8.29
[37]
  pIC50: 7.31
[38]
  pIC50: 7.71
[40]
  pIC50: 6.19
[41]
  pIC50: 6.53
[42]
  pIC50: 7.58
[43]
  pIC50: 6.83
[45]
  pIC50: 6.96
[46]
  pIC50: 5.88
[47]
  pIC50: 7.17
[48]
  pIC50: 7.31
[49]
  pIC50: 7.10
[50]
  pIC50: 7.05
[51]
  pIC50: < 5.70
[52]
  pIC50: 6.45
[53]
  pIC50: 7.52
[54]
  pIC50: 7.73
[55]
  pIC50: 7.52
[56]
  pIC50: 6.87
[57]
  pIC50: < 5.70
[59]
  pIC50: 7.07
[60]
  pIC50: 6.12
[63]
  pIC50: 7.28
